What all share (experiment): relative viability (nuclei count vs DMSO), 5 days (fraction); higher = more cells survive
In one assay the test system is NCI-H1623. An outline of the steps: (§1)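 Cells from lung cancer lines were seeded into 1536-well plates and, one day later, dosed by pin tool. Treatments were either a single drug or a fixed dose of an anchor drug with five library-drug doses (not always all listed) in √10 steps. After 5 days, nuclei were stained in a one-step fixation (final 0.05% Triton X-100, 1% formaldehyde, 1 ug/ml Hoechst) and counted on 4× images, and relative viability is the treated-to-vehicle nuclei ratio, as the median of duplicate plates.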

The subject of the next assay is NCI-H2126. An outline of the steps: as §1
Another assay deals with NCI-H1648. An outline of the steps: as §1
The test system of a further assay is A549. An outline of the steps:
as §1

The test system of the next assay is NCI-H1299. An outline of the steps:
as §1

The test system of the next assay is EBC-1. An outline of the steps:
as §1

The test system of a further assay is Calu-6. An outline of the steps: as §1
For the next assay, the system named is IA-LM. An outline of the steps: as §1
The test system of the next assay is NCI-H1703. An outline of the steps:
as §1

Drawing on the supplement of paper PMC10307832, this text covers relative viability for six compounds.

`C[C@@H]1CN(CC(=O)Nc2ccc3c(c2)Cc2cccc(-c4cc(=O)cc(N5CCOCC5)o4)c2S3)C[C@H](C)O1` + CCNC(=O)c1noc(-c2cc(C(C)C)c(O)cc2O)c1-c1ccc(CN2CCOCC2)cc1 [Luminespib] (partner 0.01 µM): the relative viability turned out to be 0.439 with NCI-H1623 (first compound 0.04 µM); 0.473 with NCI-H1623 (first compound 0.1265 µM); 0.442 with NCI-H1623 (first compound 0.4 µM); 0.561 with NCI-H1623 (first compound 4 µM); 1.04 in the assay with NCI-H2126 (first compound 0.04 µM); 0.881 with NCI-H2126 (first compound 0.1265 µM). Further, the relative viability was found to be 0.863 in the assay with NCI-H2126 (first compound 0.4 µM) and 0.744 in the assay on NCI-H2126 (first compound 4 µM).

As for `C[C@@H]1CN(CC(=O)Nc2ccc3c(c2)Cc2cccc(-c4cc(=O)cc(N5CCOCC5)o4)c2S3)C[C@H](C)O1` + COc1cccc2cc(-c3nc([C@H]4CC[C@H](C(=O)O)CC4)n4ncnc(N)c34)[nH]c12 [OSI-027] (partner 0.5 µM), the relative viability in the assay on NCI-H1623 (first compound 0.04 µM) worked out at 0.411; in the assay on NCI-H1623 (first compound 0.1265 µM) it was 0.413; with NCI-H1623 (first compound 0.4 µM), 0.412; in the assay on NCI-H1623 (first compound 4 µM), 0.381; in the assay on NCI-H2126 (first compound 0.04 µM) it was 0.708; in the assay on NCI-H2126 (first compound 0.1265 µM), 0.579. In addition, the relative viability in the assay on NCI-H2126 (first compound 0.4 µM) is 0.677; in the assay on NCI-H2126 (first compound 4 µM), 0.647; in the assay on NCI-H1648 (first compound 0.04 µM), 0.247; with NCI-H1648 (first compound 0.1265 µM), 0.258; with NCI-H1648 (first compound 0.4 µM), 0.242; with NCI-H1648 (first compound 4 µM) it was 0.235.

`C[C@@H]1CN(CC(=O)Nc2ccc3c(c2)Cc2cccc(-c4cc(=O)cc(N5CCOCC5)o4)c2S3)C[C@H](C)O1` + Cc1cc(Nc2cc(N3CCN(C)CC3)nc(Sc3ccc(NC(=O)C4CC4)cc3)n2)n[nH]1 [Tozasertib] (partner 0.1 µM): the relative viability in the assay on NCI-H1623 (first compound 0.04 µM) was 0.461; with NCI-H1623 (first compound 0.1265 µM) it was 0.409; in the assay on NCI-H1623 (first compound 0.4 µM), 0.406; in the assay with NCI-H1623 (first compound 4 µM), 0.417; in the assay on NCI-H2126 (first compound 0.04 µM), 0.898; in the assay with NCI-H2126 (first compound 0.1265 µM), 0.83. Further, the relative viability came out at 0.793 with NCI-H2126 (first compound 0.4 µM); 0.699 with NCI-H2126 (first compound 4 µM); 0.3 with NCI-H1648 (first compound 0.04 µM); 0.421 with NCI-H1648 (first compound 0.1265 µM); 0.542 with NCI-H1648 (first compound 0.4 µM); 0.395 in the assay with NCI-H1648 (first compound 4 µM).

As for `C[C@@H]1CN(CC(=O)Nc2ccc3c(c2)Cc2cccc(-c4cc(=O)cc(N5CCOCC5)o4)c2S3)C[C@H](C)O1` + Cc1nc(Nc2ncc(C(=O)Nc3c(C)cccc3Cl)s2)cc(N2CCN(CCO)CC2)n1 [Dasatinib] (partner 0.075 µM), the relative viability was determined as 0.57 with NCI-H1623 (first compound 0.04 µM); 0.555 in the assay with NCI-H1623 (first compound 0.1265 µM); 0.51 in the assay on NCI-H1623 (first compound 0.4 µM); 0.588 in the assay with NCI-H1623 (first compound 4 µM); 0.607 in the assay on NCI-H2126 (first compound 0.04 µM); 0.604 in the assay on NCI-H2126 (first compound 0.1265 µM). Further, the relative viability in the assay with NCI-H2126 (first compound 0.4 µM) was 0.467; with NCI-H2126 (first compound 4 µM) it was 0.418.

Consider `C[C@@H]1CN(CC(=O)Nc2ccc3c(c2)Cc2cccc(-c4cc(=O)cc(N5CCOCC5)o4)c2S3)C[C@H](C)O1` + N=C(N)NC(=N)NCCc1ccccc1 [Phenformin] (partner 250 µM), for which the relative viability in the assay with A549 (first compound 0.04 µM) amounted to 0.106; in the assay with A549 (first compound 0.1265 µM), 0.197; with A549 (first compound 0.4 µM), 0.252; with A549 (first compound 4 µM) it was 0.138; in the assay on NCI-H1623 (first compound 0.04 µM), 0.523; in the assay with NCI-H1623 (first compound 0.1265 µM) it was 0.617. Besides, the relative viability in the assay on NCI-H1623 (first compound 0.4 µM) is 0.54; in the assay with NCI-H1623 (first compound 4 µM), 0.61; with NCI-H2126 (first compound 0.04 µM), 0.573; with NCI-H2126 (first compound 0.1265 µM), 0.528; in the assay with NCI-H2126 (first compound 0.4 µM) it was 0.531; in the assay with NCI-H2126 (first compound 4 µM) it was 0.454.

As for `C[C@@H]1CN(CC(=O)Nc2ccc3c(c2)Cc2cccc(-c4cc(=O)cc(N5CCOCC5)o4)c2S3)C[C@H](C)O1` + O=C(c1cc(Cc2n[nH]c(=O)c3ccccc23)ccc1F)N1CCN(C(=O)C2CC2)CC1 [Olaparib] (partner 8 µM), the relative viability with NCI-H1299 (first compound 0.04 µM) came out at 1.08; in the assay on NCI-H1299 (first compound 0.1265 µM), 1; with NCI-H1299 (first compound 0.4 µM) it was 1.05; with NCI-H1299 (first compound 4 µM), 0.488; with EBC-1 (first compound 0.04 µM), 0.736; with EBC-1 (first compound 0.1265 µM), 0.723. The relative viability amounted to 0.494 with EBC-1 (first compound 0.4 µM); 0.147 in the assay on EBC-1 (first compound 4 µM); 0.646 in the assay with Calu-6 (first compound 0.04 µM); 0.573 in the assay with Calu-6 (first compound 0.1265 µM); 0.672 in the assay with Calu-6 (first compound 0.4 µM); 0.299 with Calu-6 (first compound 4 µM). Also, the relative viability with A549 (first compound 0.04 µM) came out at 0.239; in the assay with A549 (first compound 0.1265 µM), 0.334; in the assay with A549 (first compound 0.4 µM), 0.332; in the assay on A549 (first compound 4 µM), 0.0917; in the assay on NCI-H2126 (first compound 0.04 µM), 0.928; in the assay with NCI-H2126 (first compound 0.1265 µM), 0.873. The relative viability in the assay with NCI-H2126 (first compound 0.4 µM) stood at 0.95; with NCI-H2126 (first compound 4 µM), 0.928; in the assay with NCI-H1648 (first compound 0.04 µM) it was 0.56; in the assay on NCI-H1648 (first compound 0.1265 µM), 1.08; with NCI-H1648 (first compound 0.4 µM), 0.879; with NCI-H1648 (first compound 4 µM), 0.56. Further, the relative viability in the assay with IA-LM (first compound 0.04 µM) turned out to be 0.844; with IA-LM (first compound 0.1265 µM) it was 0.976; in the assay with IA-LM (first compound 0.4 µM), 0.792; in the assay with IA-LM (first compound 4 µM) it was 0.207; in the assay with NCI-H1703 (first compound 0.04 µM) it was 0.489; in the assay with NCI-H1703 (first compound 0.1265 µM) it was 0.407. The values for the relative viability in the assay with NCI-H1703 (first compound 0.4 µM) and in the assay with NCI-H1703 (first compound 4 µM) were 0.295 and 0.208, respectively.
